Assay results: patent US9573956B2, “Compounds as dual inhibitors of phosphodiesterases and histone deacetylases” (FUNDACIÓN PARA LA INVESTIGACIÓN MÉDICA APLICADA, priority 2013, dated 2017)

Tests used:
HDAC3 = molecular target: T1, HDAC3 (Homo sapiens, UniProt O15379); assay: HDAC enzyme activity assay (fluorogenic substrate), HDAC3; format: biochemical; settings: recombinant enzyme; read-out: HDAC3 inhibition (IC50)
T1 construct: is full-length with C-terminal his tag and human NCOR2, N-terminal GST tag; His (C); purchased BPS Biosciences 50003; host or cells: baculovirus infected Sf9 cells

HDAC1 = HDAC1 (Homo sapiens, UniProt Q13547); assay: HDAC enzyme activity assay (fluorogenic substrate), HDAC1; format: biochemical; settings: recombinant enzyme; read-out: HDAC1 inhibition (IC50)
AcH3 = assay: In-vivo activity, hippocampus of wild type mice: AcH3; set-up: species or system mouse; settings: i.p. 40 mg/kg, hippocampus one hour later
Protocol: (§1) To determine the ability of the compounds to inhibit HDAC and PDE in the brain, the compound was administered to wild type mice by i.p. at a dose of 40 mg/kg (n=3). Another group of animals received the vehicle (1/1/8, v:v:v, DMSO/Tween 20/saline). One hour later, mice were sacrificed by cervical dislocation and their hippocampus was quickly dissected from the brains.
(§2) Total tissue homogenates were obtained by homogenizing the hippocampus in a cold lysis buffer with protease inhibitors (0.2 M NaCl, 0.1 M HEPES, 10% glycerol, 200 mM NaF, 2 mM Na4P2O7, 5 mM EDTA, 1 mM EGTA, 2 mM DTT, 0.5 mM PMSF, 1 mM Na3VO4 and Complete Protease Inhibitor Cocktail, Roche Diagnostics). The homogenate was then centrifuged at 14,000×g at 4° C. for 20 min and the supernatant aliquoted and stored at −80° C. Total protein concentrations were determined using the BioRad Bradford protein assay (BioRad Laboratories). Protein samples were analyzed as described in the “in vitro” section.

pCREB [1] = assay: PDE activity in wild type primary neurons (Western blot pCREB); format: cell-based; settings: Mus musculus, Neuron, 0.5 h, 30 min, EC50 = 50% increase in pCREB over basal
PDE5A = molecular target: T2, PDE5A (Homo sapiens, UniProt O76074); assay: PDE enzyme activity assay (HTRF cGMP), PDE5A; format: biochemical; settings: recombinant enzyme; read-out: PDE5A1 inhibition (IC50)
T2 construct: they are full-length with N-terminal GST tag; GST (N); purchased BPS Biosciences 60050; host or cells: baculovirus infected Sf9 cells

[2] = test system: carboxyl terminal fragment AβPP (C99); assay: AD-related markers in Tg2576 neurons: APP processing (C99); format: cell-based; settings: Mus musculus, Neuron, 48 h, treated two days, EC50 = 50% decrease in C99 over basal
Protocol: The effects of the compounds on amyloid pathology were analysed in primary cultures (15 DIV) of neurons derived from the hippocampus and cortex of Tg2576 mouse embryos. Tg2576 mice express the human 695-aa isoform of APP (hAPP) containing the Swedish double mutation, which favours Aβ production. Neurons were treated for two days and collected at day 3, 24 h after the last treatment. First it was analysed the effect of the compounds on hAPP processing by the amyloidogenic pathway by measuring the carboxyl terminal fragment AβPP (C99), which is the precursor of Aβ42. In this case the reported EC50, Table 2 (below), means a 50% decrease in C99 levels over basal (saline, no treatment).
To analyze APP-derived fragments and p-tau levels in primary neuronal cultures, cells were collected in a buffer containing SDS (2%), Tris-HCl (10 mM, pH 7.4), protease inhibitors (1 mM PMSF and Complete Protease Inhibitor Cocktail: Roche Diagnostics) and phosphatase inhibitors (0.1 mM Na3VO4 and 1 mM NaF). The homogenates were sonicated for 2 min and centrifuged at 100,000×g for 1 h. Aliquots of the supernatant were frozen at −80° C. and their protein concentrations determined by the Bradford method using the Bio-Rad protein assay (Bio-Rad, Hercules, Calif., USA). Aliquots of the protein extracts were mixed with XT sample buffer plus XT reducing agent (Bio-Rad, Hercules, Calif., USA) and boiled for 5 min. Proteins were separated in a Criterion precast Bis-Tris 4-12% gradient precast gel (Bio-Rad, Hercules, Calif., USA) and transferred to a PVDF membrane with a removal rating of […] (Hybond LFP, Amersham Biosciences, Little Chalfont, UK). The membranes were blocked with 5% milk, 0.05% Tween-20 in PBS or TBS, and incubated overnight with the following primary antibodies in the corresponding buffers: mouse monoclonal anti-phosphotau AT8 (Pierce Biotechnology Inc., Rockford), mouse monoclonal anti-tau (clone Tau46, Sigma-Aldrich, St Louis, Mo.), 6E10 mouse monoclonal antibody (amino acids 1-17 of Aβ peptide; Millipore), mouse monoclonal anti-β-actin, mouse monoclonal anti-α-tubulin and mouse monoclonal anti-Acetylated-tubulin (Sigma). All antibodies were used at dilutions of 1:1,000 except for the mouse monoclonal anti-β-actin, anti-Acetylated-tubulin and anti-tubulin (1:50,000). Following two washes in TBS/Tween20 and one wash in TBS alone, immunolabelled protein bands were detected using HRP-conjugated anti-rabbit or anti-mouse antibodies (diluted 1:5,000: Santa Cruz). Binding was visualised by enhanced chemiluminescence (ECL, GE Healthcare Bioscience, Buckinghamshire, UK) and autoradiographic exposure to Hyperfilm ECL (GE Healthcare Bioscience), using Quantity One™ software v.4.6.3 (Bio-Rad) for quantification.

pCREB [3] = assay: In-vivo activity, hippocampus of wild type mice: pCREB; set-up: species or system mouse; settings: i.p. 40 mg/kg, hippocampus one hour later
Protocol: as §1, §2

acetylated-α-tubulin = assay: AD-related markers in Tg2576 neurons: acetylated-tubulin; format: cell-based; settings: Mus musculus, Neuron, 48 h, treated two days, EC50 = 50% increase in acetylated-α-tubulin over basal, read-out: AcTub (EC50)
HDAC2 = molecular target: T3, HDAC2 (Homo sapiens, UniProt Q92769); assay: HDAC enzyme activity assay (fluorogenic substrate), HDAC2; format: biochemical; settings: recombinant enzyme; read-out: HDAC2 inhibition (IC50)
T3 construct: NM_001527; Cat. #50002) is full-length with C-terminal his tag; His (C); purchased BPS Biosciences 50002; host or cells: baculovirus infected Sf9 cells
T3 sequence (Q92769 whole entry): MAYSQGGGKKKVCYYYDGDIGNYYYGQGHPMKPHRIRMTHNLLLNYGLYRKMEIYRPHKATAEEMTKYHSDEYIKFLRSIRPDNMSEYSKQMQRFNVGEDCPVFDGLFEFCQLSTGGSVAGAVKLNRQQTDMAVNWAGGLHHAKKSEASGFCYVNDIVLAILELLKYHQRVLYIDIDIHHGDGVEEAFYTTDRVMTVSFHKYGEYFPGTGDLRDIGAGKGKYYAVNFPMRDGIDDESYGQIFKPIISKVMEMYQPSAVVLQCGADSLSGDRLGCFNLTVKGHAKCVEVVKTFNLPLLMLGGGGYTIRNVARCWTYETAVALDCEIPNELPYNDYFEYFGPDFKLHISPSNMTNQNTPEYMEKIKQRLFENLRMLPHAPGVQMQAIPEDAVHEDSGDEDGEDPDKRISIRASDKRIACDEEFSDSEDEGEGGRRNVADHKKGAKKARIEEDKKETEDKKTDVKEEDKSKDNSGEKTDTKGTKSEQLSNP

T1 sequence (O15379 whole entry): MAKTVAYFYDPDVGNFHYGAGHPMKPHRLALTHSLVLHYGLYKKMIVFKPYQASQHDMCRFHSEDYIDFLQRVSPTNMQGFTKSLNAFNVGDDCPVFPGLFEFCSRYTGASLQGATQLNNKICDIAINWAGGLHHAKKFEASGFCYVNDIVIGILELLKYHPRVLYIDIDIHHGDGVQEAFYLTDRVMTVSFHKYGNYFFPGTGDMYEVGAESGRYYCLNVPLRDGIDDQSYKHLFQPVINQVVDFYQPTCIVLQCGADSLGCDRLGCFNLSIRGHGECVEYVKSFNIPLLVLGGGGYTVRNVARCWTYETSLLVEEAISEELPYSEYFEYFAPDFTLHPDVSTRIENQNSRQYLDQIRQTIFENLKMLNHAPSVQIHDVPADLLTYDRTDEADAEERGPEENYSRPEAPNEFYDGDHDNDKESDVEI
T1 sequence (Q9Y618 395-489 partner limits assumed): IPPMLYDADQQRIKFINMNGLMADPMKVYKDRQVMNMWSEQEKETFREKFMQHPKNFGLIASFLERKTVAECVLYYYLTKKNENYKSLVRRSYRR
Sequence of HDAC1 (Q13547 whole entry): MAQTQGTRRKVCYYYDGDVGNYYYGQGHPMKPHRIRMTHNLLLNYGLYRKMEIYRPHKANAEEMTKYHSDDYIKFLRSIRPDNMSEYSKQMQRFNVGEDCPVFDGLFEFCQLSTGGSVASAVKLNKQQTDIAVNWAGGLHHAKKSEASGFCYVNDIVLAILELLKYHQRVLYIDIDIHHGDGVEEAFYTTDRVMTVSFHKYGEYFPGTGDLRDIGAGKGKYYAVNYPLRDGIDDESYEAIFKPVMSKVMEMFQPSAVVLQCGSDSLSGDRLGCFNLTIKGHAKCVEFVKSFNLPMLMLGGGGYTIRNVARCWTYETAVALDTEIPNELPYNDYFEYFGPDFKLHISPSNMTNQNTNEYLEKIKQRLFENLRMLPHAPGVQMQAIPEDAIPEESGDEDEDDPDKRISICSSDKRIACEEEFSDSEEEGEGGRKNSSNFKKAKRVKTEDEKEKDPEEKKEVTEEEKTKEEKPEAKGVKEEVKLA

In the case of `CCCc1nn(C)c2c(=O)[nH]c(-c3cc(CC4CC(C(=O)NO)C4)ccc3OCC)nc12` (racemic) [Example 1-19, 3-[[4-ethoxy-3-(1-methyl-7-oxo-3-propyl-6H-pyrazolo[4,3-d]pyrimidin-5-yl)phenyl]methyl]cyclobutanecarbohydroxamic acid], the IC50 (HDAC3) is reported as 0.01 to 1 µM, the IC50 (HDAC1) is reported as 0.01 to 1 µM and the “AcH3, increment in biological response vs basal” value (AcH3) is reported as “+++ (basal×2≦(+++)<basal×3)”. For the same compound, the EC50 (pCREB [1]) was 0.01 to 1 µM, the IC50 (PDE5A) was 0.01 to 1 µM and the EC50 [2] was 0.01 to 1 µM. The “pCREB, increment in biological response vs basal” value (pCREB [3]) was “+++ (basal×2≦(+++)<basal×3)”, the EC50 (acetylated-α-tubulin) was 0.01 to 1 µM and the IC50 (HDAC2) was 0.01 to 1 µM.
For `CCCc1nn(C)c2c(=O)[nH]c(-c3cc(S(=O)(=O)N4CCN(c5ncc(C(=O)NO)cn5)CC4)ccc3OCC)nc12` [Example 1-06, 2-(4-[3-(6,7-Dihydro-1-methyl-7-oxo-3-propyl-1H-pyrazolo[4,3-d]pyrimidin-5-yl)-4-ethoxyphenylsulfonyl]piperazin-1-yl)-N-hydroxypyrimidine-5-carboxamide], the IC50 (HDAC3) was 0.01 to 1 µM, the IC50 (HDAC1) was under 0.01 µM and the “AcH3, increment in biological response vs basal” value (AcH3) was “+++ (basal×2≦(+++)<basal×3)”. It also gave an EC50 (pCREB [1]) of 0.01 to 1 µM, an IC50 (PDE5A) of under 0.01 µM and an EC50 [2] of 0.01 to 1 µM. For the same compound, the “pCREB, increment in biological response vs basal” value (pCREB [3]) was “+++ (basal×2≦(+++)<basal×3)”, the EC50 (acetylated-α-tubulin) was 0.01 to 1 µM and the IC50 (HDAC2) was 0.01 to 1 µM.
With `CCCc1nn(C)c2c(=O)[nH]c(-c3cc(Cc4ccc(C(=O)NO)cc4)ccc3OCC)nc12` [Example 1-15, 4-[[4-ethoxy-3-(1-methyl-7-oxo-3-propyl-6H-pyrazolo[4,3-d]pyrimidin-5-yl)phenyl]methyl]benzenecarbohydroxamic acid] the IC50 (HDAC3) was 1 to 10 µM, the IC50 (HDAC1) was 0.01 to 1 µM and the “AcH3, increment in biological response vs basal” value (AcH3) was “+ (basal×1 means no increment (+))”. For the same compound, the EC50 (pCREB [1]) was 0.01 to 1 µM, the IC50 (PDE5A) was 0.01 to 1 µM and the EC50 [2] was 0.01 to 1 µM. The “pCREB, increment in biological response vs basal” value (pCREB [3]) was “+ (basal×1 means no increment (+))”, the EC50 (acetylated-α-tubulin) was 0.01 to 1 µM and the IC50 (HDAC2) was 1 to 10 µM.
With `CCCc1nn(C)c2c(=O)[nH]c(-c3cc(Cc4ccc(C(=O)NO)s4)ccc3OCC)nc12` [Example 1-16] the IC50 (HDAC3) was 1 to 10 µM, the IC50 (HDAC1) was 0.01 to 1 µM and the “AcH3, increment in biological response vs basal” value (AcH3) was “++ (basal×1≦(++)<basal×2)”. For the same compound, the EC50 (pCREB [1]) was 0.01 to 1 µM, the IC50 (PDE5A) was 0.01 to 1 µM and the EC50 [2] was 0.01 to 1 µM. For the same compound, the “pCREB, increment in biological response vs basal” value (pCREB [3]) was “+ (basal×1 means no increment (+))”, the EC50 (acetylated-α-tubulin) was 0.01 to 1 µM and the IC50 (HDAC2) was 1 to 10 µM.
